Measurements reported in US6942870B2, “Compositions and methods using direct MMP inhibitors for inhibiting photoaging of skin” (The Regents of the University of Michigan, priority 1997, dated 2005).
“Also recorded” adds a separate entry of the source.

Columns and labels:
human skin = experiment: UV-induced erythema (skin reddening) of human skin after topical pretreatment, chromameter; type: in vivo; conditions: for protection against UV-induced erythema / reduction in erythema: 5% ASA or 3.5% vit. C applied 16 hours prior to exposure; for reduction in erythema: vs untreated (vehicle-only) skin; for inhibition of UV-induced erythema: 2 MED, 20% NAC or 5% FDO pretreatment; for prevention of UV-induced erythema: 5% topical, applied about seven hours prior to UV exposure, vs vehicle-treated skin
Protocol: (§1) In the following examples, four F36T12 ERE-VHO UV bulbs were used to irradiate human skin. At all times, a Kodocel TA401/407 filter was mounted 4 cm in front of the bulbs to remove UVC radiation (<290 nm). Radiation intensity was monitored using an IL443 phototherapy radiometer and an SED240/UVB/W photodetector (International Light, Newbury, Mass.). Spectroradiometry was performed using an Optronic Labroatories OL 754 system. Total irradiance (290-800 nm) at about 43 cm (17 in.) from the source of four bulbs was about 1.5 mJ/cm^2·s (1.49×10^−3 W/cm^2). The radiation output from this bulb was determined by spectroradiometry to provide about 47% UVB and about 27% UVA (composed of about 9% UVA1 (340-400 nm) and about 18% UVA2 (320-340 nm)), the remainder being visible and IR radiation. An exposure of about 160 seconds under this set of four bulbs is equivalent to an exposure of one MED. Accordingly, when compared with natural sunlight which has 0.5% UVB and 6.5% UVA, it can be seen that the set of four bulbs used in these experiments provides far less UVA radiation than would exposure to the sun of an equivalent amount of UVB.
(§2) In the following examples, a “standard vechicle” of 30% PEG (polyethylene glycol) in 70% ethanol (with 0.05% BHT as preservative) was used. […] MMP activities were measured by zymography.
Chromameter: erythema (skin reddening) was determined 24 h post-exposure using a commercially available Minolta chromameter (chromameter CR200, model 94401085).

type I collagenase = experiment: Type I collagenase activity/level in biopsies of UV-exposed human skin; type: in vivo; conditions: for collagenase activity after UV exposure: 5% ASA applied 16 hours prior to exposure; for protection against UV-induced type I collagenase activity: 2 MED, 20% NAC or 5% FDO pretreatment; for inhibition of UV-induced increase in collagenase activity: 20% NAC; for inhibition of UV-induced collagenase activity: about 2 MED, 5% topical, about seven hours prior to exposure
Protocol: as §1, §2
Matrix metalloproteinase assays. Tissue pieces were frozen in liquid nitrogen immediately after biopsy, homogenized in 20 mM Tris HCl (pH 7.6) plus 5 mM CaCl2, and centrifuged at 3000×g for 10 minutes to remove particulates. Ability to release soluble radioactive fragments from 3H-labeled fibrillar Type I collagen (described by Fisher, G. J., et al., Nature, 379, 335-339 (1996) and Hu, C-L, et al., Analytic. Biochem, 88, 638-643 (1978)) was used as a measure of collagenolytic activity. […] Subsequently, 0.2 μCi of collagen substrate (NEN-DuPont, Boston, Mass.) was incubated for 24 hours with 50 μl of tissue extract. At the end of the 24-hour incubation period, the samples were centrifuged at 12,000×g for 10 minutes to pellet the intact protein. Radioactivity remaining in the supernatant fluid was then measured and from this, the percentage of substrate hydrolzyed was determined.

92 KDa gelatinase = experiment: 92 kDa gelatinase activity/level in biopsies of UV-exposed human skin (gelatin zymography); type: in vivo; conditions: for inhibition of UV-induced increase in 92 KDa gelatinase activity: 1 MED, 20% NAC; for inhibition of UV-induced 92 KDa gelatinase activity: 5% topical, about seven hours prior to exposure
Protocol: as §1, §2
Gelatin zymography (Varani et al., op. cit.) was used to assess MMP-2 (72-kD gelatinase; gelatinase A) and MMP9 (92-kD gelatinase; gelatinase B) activity. Tissue extracts were electrophoresed in an 8.5% SDS-polyacrylamide gel containing 1 mg/ml of gelatin. After electrophoresis, the SDS was removed by three sequential washes in 1% Triton X-100. The first two washes were for 20 minutes each and the last was overnight. Quantitation of hydrolysis zone width was done by laser densitometry.

[1] = UV absorbance characteristics of UVA blocker over UVA1, UVA2 and UVB wavelengths; type: physicochemical
Description: We investigated the effect of pretreatment of skin with a known UVA blocker on both erythema and MMP activity after exposure to 2 MEDs of UV radiation. In particular, we used PARSOL® 1789 (also known as PARSOL A) brand of 4-t-butyl-4′-methoxydibenzoylmethane, which is described in U.S. Pat. No. 4,387,089 (the disclosure of which is incorporated herein by reference). (PARSOL MCX and PARSOL MOX are trademarks for 2-ethylhexyl p-methoxycinnamate, a UVB blocker commonly used in commercial sunscreen, and disclosed in U.S. Pat. No. 4,713,473, the disclosure of which is incorporated herein by reference). The absorbance characteristics of PARSOL® 1789 over the UVA1, UVA2, and UVB wavelengths is shown as the dotted line in FIG. 8A.

[2] = about 2 MED, 5% PARSOL 1789 pretreatment

CC(=O)Oc1ccccc1C(=O)O [ASA, acetyl salicylic acid]
protection against UV-induced erythema (human skin; 1 MED): provided protection against erythema | protection against UV-induced erythema (human skin; 1 MED, listed as aspirin): reduced the UV-induced erythema | reduction in erythema (human skin; 1 MED): about 30% | collagenase activity after UV exposure (type I collagenase; 1 MED, vs untreated skin): not effective at preventing elevated collagenase activity | collagenase activity after UV exposure (type I collagenase; 1 MED, vs untreated skin, listed as aspirin): greater collagenase activity than untreated skin

O/N=C(/C(=N/O)c1ccco1)c1ccco1 [FDO, 2-furildioxime]
inhibition of UV-induced erythema (human skin): effective at preventing erythema; also recorded: completely inhibited erythema | protection against UV-induced type I collagenase activity (type I collagenase): some protection against MMP induction

CC(=O)N[C@@H](CS)C(=O)O [NAC, N-acetyl cysteine]
anti-redness effect on UV-exposed skin (human skin; 1 MED, 20% NAC, four or seven hours prior to exposure): no anti-redness effect | inhibition of UV-induced erythema (human skin): no effect against erythema | inhibition of UV-induced increase in collagenase activity (type I collagenase; 1 MED, four hour pretreatment): ineffective | inhibition of UV-induced increase in collagenase activity (type I collagenase; 1 MED, seven hour pretreatment): provided an inhibitory effect | protection against UV-induced type I collagenase activity (type I collagenase): effective at preventing increased MMP activity; also recorded: significant protection against collagenase activity | inhibition of UV-induced increase in 92 KDa gelatinase activity (92 KDa gelatinase; four hour pretreatment): ineffective | inhibition of UV-induced increase in 92 KDa gelatinase activity (92 KDa gelatinase; seven hour pretreatment): provided an inhibitory effect

COc1ccc(C(=O)CC(=O)c2ccc(C(C)(C)C)cc2)cc1 [PARSOL® 1789, 4-t-butyl-4′-methoxydibenzoylmethane]
protection from UV-induced erythema (sunburn) (human skin; [2]): does provide some protection | gelatinase activity vs UV-exposed vehicle-treated skin (92 KDa gelatinase; [2]): significantly reduced | gelatinase activity vs vehicle-treated unexposed skin (92 KDa gelatinase; [2]): not significantly different from vehicle-treated unexposed skin | blocking of UVA1 radiation (absorbance) ([1]; UVA1 wavelengths): somewhat effective at blocking UVA1 radiation | blocking of UVA2 radiation (absorbance) ([1]; UVA2 wavelengths): especially useful at blocking UVA2 radiation

COc1ccc2[nH]cc(CCNC(C)=O)c2c1 [melatonin]
prevention of UV-induced erythema (human skin; about 2 MED): significantly reduced the erythema | prevention of UV-induced erythema (human skin; about 2 MED, listed as Melatonin): does appear to prevent erythema | inhibition of UV-induced collagenase activity (type I collagenase): neither melatonin nor vitamin E (both with pretreatment) prevented induction of MMPs; also recorded: did not function to inhibit the increased MMP activity | inhibition of UV-induced 92 KDa gelatinase activity (92 KDa gelatinase; about 2 MED): neither melatonin nor vitamin E (both with pretreatment) prevented induction of MMPs; also recorded: did not function to inhibit the increased MMP activity

CC1=C(/C=C/C(C)=C/C=C/C(C)=C/CO)C(C)(C)CCC1 [retinol]
prevention of UV-induced elevation in type I collagenase activity (type I collagenase; suberythemal 0.5 MED, 0.1% retinoic acid or 1% retinol pretreatment): about as effective as retinoic acid

O=C1O[C@H]([C@@H](O)CO)C(O)=C1O [vitamin C, ascorbic acid]
protection against UV-induced erythema (human skin; 1 MED): provided protection against erythema; also recorded: reduced the UV-induced erythema | reduction in erythema (human skin; 1 MED): about 30% | reduction in collagenase activity (type I collagenase; 1 MED, 3.5% vit. C applied 16 hours prior to exposure, vs untreated skin): ~25%

vitamin E
prevention of UV-induced erythema (human skin; about 2 MED): significantly reduced the erythema | prevention of UV-induced erythema (human skin; about 2 MED, listed as Vitamin E): slightly worse but still very effective at preventing erythema | inhibition of UV-induced collagenase activity (type I collagenase): neither melatonin nor vitamin E (both with pretreatment) prevented induction of MMPs; also recorded: did not function to inhibit the increased MMP activity | inhibition of UV-induced 92 KDa gelatinase activity (92 KDa gelatinase; about 2 MED): neither melatonin nor vitamin E (both with pretreatment) prevented induction of MMPs; also recorded: did not function to inhibit the increased MMP activity
